Target: T1, EHMT2 (Homo sapiens, UniProt Q96KQ7)
T1 construct: host or cells: MDA-MB-231
T1 sequence (Q96KQ7 1-1210): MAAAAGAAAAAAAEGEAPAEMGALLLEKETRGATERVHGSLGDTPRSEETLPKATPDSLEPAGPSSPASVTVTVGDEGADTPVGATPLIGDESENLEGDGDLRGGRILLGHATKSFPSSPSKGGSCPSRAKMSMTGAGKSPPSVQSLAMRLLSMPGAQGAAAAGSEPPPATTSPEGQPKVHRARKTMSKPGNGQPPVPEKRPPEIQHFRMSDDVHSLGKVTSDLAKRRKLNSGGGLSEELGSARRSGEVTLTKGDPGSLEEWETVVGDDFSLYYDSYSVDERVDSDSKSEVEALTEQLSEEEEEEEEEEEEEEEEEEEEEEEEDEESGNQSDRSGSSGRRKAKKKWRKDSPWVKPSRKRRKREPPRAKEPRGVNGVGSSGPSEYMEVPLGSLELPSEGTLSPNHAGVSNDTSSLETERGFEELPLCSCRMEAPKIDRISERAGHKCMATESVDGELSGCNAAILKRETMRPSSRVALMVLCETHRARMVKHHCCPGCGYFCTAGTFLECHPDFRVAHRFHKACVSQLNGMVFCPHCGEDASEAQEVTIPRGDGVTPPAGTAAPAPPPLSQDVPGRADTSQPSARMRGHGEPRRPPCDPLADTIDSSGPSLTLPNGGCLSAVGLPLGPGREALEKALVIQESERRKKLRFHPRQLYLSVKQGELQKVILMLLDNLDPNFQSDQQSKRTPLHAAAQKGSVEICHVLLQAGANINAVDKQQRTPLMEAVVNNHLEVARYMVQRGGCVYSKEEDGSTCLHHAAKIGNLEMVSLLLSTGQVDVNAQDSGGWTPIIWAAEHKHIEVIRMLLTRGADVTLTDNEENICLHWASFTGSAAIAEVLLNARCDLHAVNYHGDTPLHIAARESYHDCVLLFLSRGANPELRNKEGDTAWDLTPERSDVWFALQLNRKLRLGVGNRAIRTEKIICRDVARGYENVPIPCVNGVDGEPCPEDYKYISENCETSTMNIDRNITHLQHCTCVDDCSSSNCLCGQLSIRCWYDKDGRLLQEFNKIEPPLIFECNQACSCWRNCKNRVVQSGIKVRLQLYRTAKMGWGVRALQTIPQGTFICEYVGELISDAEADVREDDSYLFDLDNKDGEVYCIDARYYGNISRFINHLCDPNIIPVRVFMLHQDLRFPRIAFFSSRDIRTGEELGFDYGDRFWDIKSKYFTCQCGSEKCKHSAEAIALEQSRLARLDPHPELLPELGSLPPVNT
Test: MDA-MB-231 H3K9me2 in-cell Western assay (EHMT2 ICW)
Assay type: cell-based
Conditions: Table III; MDA-MB-231 H3K9me2 in-cell Western; read-out: EHMT2 ICW (IC50 μM)
Method in brief: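 Infrared read-out at 800 and 700 nm (H3K9me2 antibody vs DRAQ5 DNA stain) of fixed MDA-MB-231 cells after 48 h compound treatment at 37 °C. Well ratios were converted to percent inhibition, and IC50 was obtained by variable-slope nonlinear regression on triplicates.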

SMILES | IC50
CNc1ccnc(Nc2ccc(OC)c(OCCC3CCCN3C)c2)n1 (stereo not drawn) [Compound 288, N^2-(4-methoxy-3-(2-(1-methylpyrrolidin-2-yl)ethoxy)phenyl)-N^4-methylpyrimidine-2,4-diamine] | 1 to 10 µM
CNc1ccnc(Nc2ccc(OC)c(OCC3CCCN3C)c2)n1 (stereo not drawn) [Compound 289, N^2-(4-methoxy-3-((1-methylpyrrolidin-2-yl)methoxy)phenyl)-N^4-methylpyrimidine-2,4-diamine] | 0.1 to 1 µM
CNc1ccnc(Nc2ccc(OC)c(OCCCN3CCCC3C)c2)n1 (stereo not drawn) [Compound 290, N^2-(4-methoxy-3-(3-(2-methylpyrrolidin-1-yl)propoxy)phenyl)-N^4-methylpyrimidine-2,4-diamine] | 1 to 10 µM
CCNC(=O)c1cc(Nc2nccc(NC)n2)ccn1 [Compound 291, N-ethyl-4-((4-(methylamino)pyrimidin-2-yl)amino)picolinamide] | > 10 µM
CNc1ccnc(Nc2ccc(OC)c(OCCCN3CCC(C)C3)c2)n1 (stereo not drawn) [Compound 293, N^2-(4-methoxy-3-(3-(3-methylpyrrolidin-1-yl)propoxy)phenyl)-N^4-methylpyrimidine-2,4-diamine] | 1 to 10 µM
CNc1ccnc(Nc2cccc3oc(CCN(C)C)nc23)n1 [Compound 295] | > 10 µM
CNc1ccnc(Nc2cccc(N3CC(N)CC3=O)c2)n1 (stereo not drawn) [Compound 296] | > 10 µM
CNc1ccnc(Nc2cccc(N3CCC(N)C3)c2)n1 (stereo not drawn) [Compound 297] | > 10 µM
CNc1ccnc(Nc2ccc(OC)c(OCCCN3CC4CC4C3)c2)n1 (stereo not drawn) [Compound 298, N^2-(3-(3-(3-azabicyclo[3.1.0]hexan-3-yl)propoxy)-4-methoxyphenyl)-N^4-methylpyrimidine-2,4-diamine] | 0.1 to 1 µM
CNc1ccnc(Nc2ccc(OC)c(OC[C@@H](O)CN3CCCC3)c2)n1 [Compound 300, (S)-1-(2-methoxy-5-((4-(methylamino)pyrimidin-2-yl)amino)phenoxy)-3-(pyrrolidin-1-yl)propan-2-ol] | 0.1 to 1 µM
CNc1cc(C)nc(Nc2cc(OCCCN3CCCC3)c(OC)cn2)n1 [Compound 303, N^2-(5-methoxy-4-(3-(pyrrolidin-1-yl)propoxy)pyridin-2-yl)-N^4,6-dimethylpyrimidine-2,4-diamine] | 1 to 10 µM
COc1cnc(Nc2nccc3[nH]ccc23)cc1OCCCN1CCCC1 [Compound 304] | 0.1 to 1 µM
CNc1nc(C)cc(Nc2cc(OCCCN3CCCC3)c(OC)cn2)n1 [Compound 306, N^4-(5-methoxy-4-(3-(pyrrolidin-1-yl)propoxy)pyridin-2-yl)-N^2,6-dimethylpyrimidine-2,4-diamine] | > 10 µM
CNc1cc(C)nc(Nc2cc(OCCCN3CCCC3)c(OC)cn2)c1 [Compound 307, N^2-(5-methoxy-4-(3-(pyrrolidin-1-yl)propoxy)pyridin-2-yl)-N^4,6-dimethylpyridine-2,4-diamine] | 0.1 to 1 µM
CNc1cc(Nc2cc(OCCCN3CCCC3)c(OC)cn2)cc(C)n1 [Compound 308, N^4-(5-methoxy-4-(3-(pyrrolidin-1-yl)propoxy)pyridin-2-yl)-N^2,6-dimethylpyridine-2,4-diamine] | 1 to 10 µM
CNc1cc(Nc2cc(OCCCN3CCCC3)c(OC)cn2)nc(C)c1F [Compound 309, 5-fluoro-N^2-(5-methoxy-4-(3-(pyrrolidin-1-yl)propoxy)pyridin-2-yl)-N^4,6-dimethylpyridine-2,4-diamine] | 0.1 to 1 µM
CNc1cc(C)nc(Nc2ccc(OC)c(OCCCOC)c2)n1 [Compound 312, N^2-(4-methoxy-3-(3-methoxypropoxy)phenyl)-N^4,6-dimethylpyrimidine-2,4-diamine] | > 10 µM
CNc1ccnc(Nc2ccc(C3CC3)c(OCCCN3CCCC3)c2)n1 [Compound 314, N^2-(4-cyclopropyl-3-(3-(pyrrolidin-1-yl)propoxy)phenyl)-N^4-methylpyrimidine-2,4-diamine] | 1 to 10 µM
CNc1cc(C)nc(Nc2ccc(OC)c(OC[C@H]3C[C@@H](N(C)C)C3)c2)n1 [Compound 316] | 1 to 10 µM
CNc1cc(C)nc(Nc2ccc(OC)c(O[C@H]3C[C@@H](CN(C)C)C3)c2)n1 [Compound 318, N^2-(3-((1s,3s)-3-((dimethylamino)methyl)cyclobutoxy)-4-methoxyphenyl)-N^4,6-dimethylpyrimidine-2,4-diamine] | > 10 µM
CNc1cc(C2CC2)nc(Nc2ccc(OC)c(OCCCN3CCCC3)c2)n1 [Compound 320, 6-cyclopropyl-N^2-(4-methoxy-3-(3-(pyrrolidin-1-yl)propoxy)phenyl)-N^4-methylpyrimidine-2,4-diamine] | 0.1 to 1 µM
COc1cnc(Nc2cnc3ccccn23)cc1OCCCN1CCCC1 [Compound 321, N-(5-methoxy-4-(3-(pyrrolidin-1-yl)propoxy)pyridin-2-yl)imidazo[1,2-a]pyridin-3-amine] | > 10 µM
CNc1ccnc(Nc2ccc(OC)c(OCCCN(C)CC3CC3)c2)n1 [Compound 424, N^2-(3-(3-((cyclopropylmethyl)(methyl)amino)propoxy)-4-methoxyphenyl)-N^4-methylpyrimidine-2,4-diamine] | 1 to 10 µM

Continued, values first:

IC50 | SMILES
> 10 µM | CNc1ccnc(Nc2ccc(OC)c(OCCCN3CCC(C#N)C3)c2)n1 (stereo not drawn) [Compound 287, 1-(3-(2-methoxy-5-((4-(methylamino)pyrimidin-2-yl)amino)phenoxy)propyl)pyrrolidine-3-carbonitrile]
0.1 to 1 µM | CNc1ccnc(Nc2ccc(OC)c(OC[C@H](O)CN3CCCC3)c2)n1 [Compound 299, (R)-1-(2-methoxy-5-((4-(methylamino)pyrimidin-2-yl)amino)phenoxy)-3-(pyrrolidin-1-yl)propan-2-ol]
> 10 µM | CNc1cc(C)nc(Nc2cc(F)c(OC)c(OCCCN3CCCC3)c2)n1 [Compound 301, N2-(3-fluoro-4-methoxy-5-(3-(pyrrolidin-1-yl)propoxy)phenyl)-N4,6-dimethylpyrimidine-2,4-diamine]
> 10 µM | CNc1cc(C)nc(Nc2cc(OCCCN3CCCC3)c(OC)cc2F)n1 [Compound 302, N^2-(2-fluoro-4-methoxy-5-(3-(pyrrolidin-1-yl)propoxy)phenyl)-N^4,6-dimethylpyrimidine-2,4-diamine]
0.1 to 1 µM | CNc1ccnc(Nc2cc(OCCCN3CCCC3)c(OC)cn2)c1 [Compound 305, N^2-(5-methoxy-4-(3-(pyrrolidin-1-yl)propoxy)pyridin-2-yl)-N^4-methylpyridine-2,4-diamine]
> 10 µM | COc1cnc(Nc2nc(C)cc3[nH]ccc23)cc1OCCCN1CCCC1 [Compound 310]
> 10 µM | CNc1cc(C)nc(Nc2ccc(OC)c(OCCOC)c2)n1 [Compound 311, N^2-(4-methoxy-3-(2-methoxyethoxy)phenyl)-N^4,6-dimethylpyrimidine-2,4-diamine]
1 to 10 µM | CNc1cc(C)nc(Nc2ccc(C3CC3)c(OCCCN3CCCC3)c2)n1 [Compound 313, N^2-(4-cyclopropyl-3-(3-(pyrrolidin-1-yl)propoxy)phenyl)-N^4,6-dimethylpyrimidine-2,4-diamine]
1 to 10 µM | CCc1nc(Nc2ccc(OC)c(OCCCN3CCCC3)c2)nc(NC)c1F [Compound 319, 6-ethyl-5-fluoro-N^2-(4-methoxy-3-(3-(pyrrolidin-1-yl)propoxy)phenyl)-N^4-methylpyrimidine-2,4-diamine]
1 to 10 µM | CNc1ccnc(Nc2ccc(OC)c(OCCCN3CC(C)C3)c2)n1 [Compound 423, N^2-(4-methoxy-3-(3-(3-methylazetidin-1-yl)propoxy)phenyl)-N^4-methylpyrimidine-2,4-diamine]
